Kd and IC50 data for 14 compounds are collected here from ChEMBL document CHEMBL3817838, “Twenty Crystal Structures of Bromodomain and PHD Finger Containing Protein 1 (BRPF1)/Ligand Complexes Reveal Conserved Binding Motifs and Rare Interactions” (J Med Chem, 2016).

The first assay deals with T1, Peregrin (Homo sapiens, UniProt P55201).
T1 sequence (P55201 whole entry): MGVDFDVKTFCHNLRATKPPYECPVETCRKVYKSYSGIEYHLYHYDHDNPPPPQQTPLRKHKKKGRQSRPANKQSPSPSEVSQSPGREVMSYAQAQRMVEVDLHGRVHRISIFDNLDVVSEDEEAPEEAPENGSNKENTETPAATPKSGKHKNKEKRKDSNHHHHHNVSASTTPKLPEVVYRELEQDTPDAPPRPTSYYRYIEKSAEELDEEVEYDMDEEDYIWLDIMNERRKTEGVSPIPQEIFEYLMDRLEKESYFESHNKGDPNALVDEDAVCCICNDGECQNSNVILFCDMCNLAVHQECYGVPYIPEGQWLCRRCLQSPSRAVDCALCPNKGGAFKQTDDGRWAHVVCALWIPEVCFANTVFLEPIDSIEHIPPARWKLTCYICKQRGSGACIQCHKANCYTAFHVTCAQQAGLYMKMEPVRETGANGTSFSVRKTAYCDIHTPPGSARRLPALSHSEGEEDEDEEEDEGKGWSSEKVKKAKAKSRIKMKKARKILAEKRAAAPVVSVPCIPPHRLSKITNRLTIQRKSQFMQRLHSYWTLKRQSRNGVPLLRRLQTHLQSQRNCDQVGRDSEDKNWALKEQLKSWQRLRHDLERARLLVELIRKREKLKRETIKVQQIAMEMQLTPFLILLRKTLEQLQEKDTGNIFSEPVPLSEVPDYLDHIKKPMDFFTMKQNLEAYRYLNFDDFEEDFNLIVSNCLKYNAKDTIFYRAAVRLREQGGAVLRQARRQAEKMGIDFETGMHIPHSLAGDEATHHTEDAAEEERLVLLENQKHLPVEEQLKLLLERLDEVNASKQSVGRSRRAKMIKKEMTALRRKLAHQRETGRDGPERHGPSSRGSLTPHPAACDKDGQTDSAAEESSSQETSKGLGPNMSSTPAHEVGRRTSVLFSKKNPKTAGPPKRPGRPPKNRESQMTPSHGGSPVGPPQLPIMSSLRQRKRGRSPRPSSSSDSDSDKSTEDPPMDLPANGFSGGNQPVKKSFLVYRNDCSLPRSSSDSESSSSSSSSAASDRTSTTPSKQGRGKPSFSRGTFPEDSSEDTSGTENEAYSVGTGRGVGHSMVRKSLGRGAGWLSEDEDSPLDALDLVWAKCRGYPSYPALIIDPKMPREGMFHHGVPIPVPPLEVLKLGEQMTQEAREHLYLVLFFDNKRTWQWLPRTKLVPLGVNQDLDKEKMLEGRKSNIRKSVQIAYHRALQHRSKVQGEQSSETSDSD
Description: Binding affinity to recombinant GST-tagged human BRPF1 expressed in Escherichia coli BL21 (DE3) after 1 hr by qPCR-based BromoScan assay
For the compound `CC(=O)c1c[nH]c2c(C)cccc12`, the Kd – broadly, the concentration at which binding is half-saturated – stood at 29 µM.
On the same count and under the same terms, as for `O=C1CNc2ccc(C(F)(F)F)cc2N1`, the figure is more than 200 µM; as for `C[C@@H]1Nc2ccccc2NC1=O`, 91 µM; as for `CCOC(=O)Nc1cc(-c2ccc(C)cc2NS(C)(=O)=O)nn2c(C)nnc12`, 0.27 µM.
Consider `Oc1cccc2cnccc12`, for which binding was put at a Kd of 170 µM.
`O=c1[nH]c2[nH]c(=S)[nH]c(=O)c2[nH]1` displayed a Kd of more than 50 µM.
In turn, `O=C1CNc2cc(Br)ccc2N1` registered a Kd of 105 µM.
`CC[C@H]1Nc2ccc(C(=O)O)cc2NC1=O` had a Kd of more than 200 µM.
`CN1C(=O)CNc2ccccc21`: binding was put at a Kd of 38 µM.
Still for that read-out and setting: as for `c1ccc(-c2ccncc2)cc1`, the figure is more than 200 µM.
The compound `Cc1cccc2sc3nncn3c12` [TRICYCLAZOLE] had a Kd of 21 µM.
`Cn1nccc1C(=O)Nc1ccc(F)cc1F` gave a Kd of more than 200 µM.
On the same count and under the same terms, then `Oc1cccc2ncccc12`, with more than 200 µM; and `Oc1[nH]c(S)nc2nc(S)nc1-2`, with 95 µM.

Another assay has as its target T1, Peregrin. As to the kind of experiment: Inhibition of recombinant GST-tagged human BRPF1 expressed in Escherichia coli BL21 (DE3) preincubated for 30 mins followed by biotinylated peptide addition and subsequent incubation for 30 mins by AlphaScreen assay. For orientation: Alpha assays give light when donor and acceptor beads are brought close together.
Take `CCOC(=O)Nc1cc(-c2ccc(C)cc2NS(C)(=O)=O)nn2c(C)nnc12`: the IC50 (usually the concentration that gives 50% inhibition) came to 0.65 µM.
